Experimental data reported in patent publication US4937242A, “1,4-dihydropyridine derivatives and pharmaceutical composition thereof” (Kyoto Pharmaceutical Industries, Ltd., priority 1987, dated 1990).
Values after ≈ are worked out from the molar mass of the structure shown. Counter-ions that a name gives are not always drawn.

Columns and labels:
[1] = tested on: spontaneously hypertensive rats; test: Hypotensive activity in male spontaneously hypertensive rats (oral); format: in vivo, rat; conditions: systolic pressure at tail vein, oral 10 mg/kg
Protocol: Hypotensive activity [Method] Male spontaneously hypertensive rats at the 12th to 16th week in age and presenting a systolic pressure of around 200 mmHg were used as experimental animals, and 3 to 8 animals were assigned to each group. The subject compound (indicated by the example number), in an aqueous solution or 5% gum arabic suspension, was orally administered in a dose of 10 mg/kg. At the 4th and 8th hours following the administration, the systolic pressure at tail vein of each rat was noninvasively measured by means of a sphygmomanometer (USM-105, Ueda Seisakusho, Japan). A group of rats administered the solvent alone was used as a control group.
Gum arabic or water was administered to rats of the control group.

Water solubility test = format: physicochemical; conditions: powdered, 20°±5° C., within 30 minutes, read-out: Amount (ml) of water required to dissolve 1 g of the subject compounds (converted)
Protocol: The subject compounds (indicated by the example number), after being powdered, were placed in water and vigorously shaken at 20°±5° C. for 30 seconds a 5-minute intervals, and within 30 minutes, the amount of water required to dissolve 1 g of the compound (I) of the present invention therein was measured.

Row | solubility at 0.5 h (Water solubility test) [mg/mL] | SMILES | Change in blood pressure, 4 hours after administration [1] [mmHg] | Change in blood pressure, 8 hours after administration [1] [mmHg]
1 | 500 | C=CCN1CCN(CC(C)(C)COC(=O)C2=C(C)NC(C)=C(C(=O)OC)C2c2cccc([N+](=O)[O-])c2)CC1.Cl.Cl (centres unmarked) [Example 2, 3-(4-allyl-1-piperazinyl)-2,2-dimethylpropyl methyl 2,6-dimethyl-4-(m-nitrophenyl)-1,4-dihydropyridine-3,5-dicarboxylate dihydrochloride] | -81 | -104
2 | – | COC(=O)C1=C(C)NC(C)=C(C(=O)OCC(C)(C)CN2CCN(C(=O)Cc3ccccc3)CC2)C1c1cccc([N+](=O)[O-])c1 (centres unmarked) [Example 5] | -90 | -87
3 | – | COC(=O)C1=C(C)NC(C)=C(C(=O)OCC(C)(C)CN2CCN(C(=O)c3ccccc3)CC2)C1c1cccc([N+](=O)[O-])c1.Cl (centres unmarked) [Example 6, 2,2-Dimethyl-3-(4-benzoyl-1-piperazinyl)propyl Methyl 1,4-Dihydro-2,6-dimethyl-4-(3-nitrophenyl)-3,5-pyridinedicarboxylate Hydrochloride] | -64 | -88
4 | – | COC(=O)C1=C(C)NC(C)=C(C(=O)OCC(C)(C)CN2CCN(C(=O)C=Cc3ccccc3)CC2)C1c1cccc([N+](=O)[O-])c1 (centres unmarked) [Example 7] | -76 | -84
5 | – | COC(=O)C1=C(C)NC(C)=C(C(=O)OCC(C)(C)CN2CCN(C(C)=O)CC2)C1c1cccc([N+](=O)[O-])c1 (centres unmarked) [Example 8] | -56 | -90
6 | 500 (≈ 953 mM) | C#CCN1CCN(CC(C)(C)COC(=O)C2=C(C)NC(C)=C(C(=O)OC)C2c2cccc([N+](=O)[O-])c2)CC1 (centres unmarked) [Example 12] | -70 | -102
7 | – | COC(=O)C1=C(C)NC(C)=C(C(=O)OCC(C)(C)CN2CCN(CC=Cc3ccccc3)CC2)C1c1cccc([N+](=O)[O-])c1.Cl.Cl (centres unmarked) [Example 13, 2,2-Dimethyl-3-(4-cinnamyl-1-piperazinyl)propyl Methyl 1,4-Dihydro-2,6-dimethyl-4-(3-nitrophenyl)-3,5-pyridinedicarboxylate Dihydrochloride] | -69 | -77
8 | 500 | COC(=O)C1=C(C)NC(C)=C(C(=O)OCC(C)(C)CN2CCN(CCC#N)CC2)C1c1cccc([N+](=O)[O-])c1 (centres unmarked) [Example 14, 2,2-Dimethyl-3-[4-(2-cyanoethyl)-1-piperazinyl]propyl Methyl 1,4-Dihydro-2,6-dimethyl-4-(3-nitrophenyl)-3,5-pyridinedicarboxylateDihydrochloride] | -43 | -88
9 | 500 | COC(=O)C1=C(C)NC(C)=C(C(=O)OCC(C)(C)CN2CCN(CCO)CC2)C1c1cccc([N+](=O)[O-])c1 (centres unmarked) [Example 15, 2,2-Dimethyl-3-[4-(2-hydroxyethyl)-1-piperazinyl]propyl Methyl 1,4-Dihydro-2,6-dimethyl-4-(3-nitrophenyl)-3,5-pyridinedicarboxylateDihydrochloride] | -52 | -47
10 | 500 (≈ 836 mM) | COC(=O)C1=C(C)NC(C)=C(C(=O)OCC(C)(C)CN2CCN(CCN3CCCCC3)CC2)C1c1cccc([N+](=O)[O-])c1 (centres unmarked) [Example 16] | -34 | -52
11 | 312 (≈ 578 mM) | C=C(C)CN1CCN(CC(C)(C)COC(=O)C2=C(C)NC(C)=C(C(=O)OC)C2c2cccc([N+](=O)[O-])c2)CC1 (centres unmarked) [Example 17] | -112 | -107
12 | 500 (≈ 898 mM) | COC(=O)C1=C(C)NC(C)=C(C(=O)OCC(C)(C)CN2CCN(C(C)C(C)=O)CC2)C1c1cccc([N+](=O)[O-])c1 (centres unmarked) [Example 19] | -86 | -85
13 | 625 | CC=CCN1CCN(CC(C)(C)COC(=O)C2=C(C)NC(C)=C(C(=O)OC)C2c2cccc([N+](=O)[O-])c2)CC1.Cl.Cl (centres unmarked) [Example 20, 2,2-Dimethyl-3-[4-(2-butenyl)-1-piperazinyl]propyl Methyl 1,4-Dihydro-2,6-dimethyl-4-(3-nitrophenyl)-3,5-pyridinedicarboxylate Dihydrochloride] | -84 | -82
14 | 500 | C#CCCCN1CCN(CC(C)(C)COC(=O)C2=C(C)NC(C)=C(C(=O)OC)C2c2cccc([N+](=O)[O-])c2)CC1.Cl.Cl (centres unmarked) [Example 21, 2,2-Dimethyl-3-[4-(4-pentynyl)-1-piperazinyl]propyl Methyl 1,4-Dihydro-2,6-dimethyl-4-(3-nitrophenyl)-3,5-pyridinedicarboxylate Dihydrochloride] | -112 | -98
15 | 500 | COC(=O)C1=C(C)NC(C)=C(C(=O)OCC(C)(C)CN2CCN(CC#N)CC2)C1c1cccc([N+](=O)[O-])c1.Cl.Cl (centres unmarked) [Example 23, 3-(4-Cyanomethyl-1-piperazinyl)-2,2-dimethylpropyl methyl 2,6-dimethyl-4-(m-nitrophenyl)-1,4-dihydropyridine-3,5-dicarboxylate dihydrochloride] | -104 | -82
16 | 500 (≈ 873 mM) | CCOC(=O)CN1CCN(CC(C)(C)COC(=O)C2=C(C)NC(C)=C(C(=O)OC)C2c2cccc([N+](=O)[O-])c2)CC1 (centres unmarked) [Example 25] | – | –
17 | 500 (≈ 837 mM) | COC(=O)C1=C(C)NC(C)=C(C(=O)OCC(C)(C)CN2CCN(CC(=O)N3CCCC3)CC2)C1c1cccc([N+](=O)[O-])c1 (centres unmarked) [Example 26] | -53 | -32
18 | 500 (≈ 897 mM) | CNC(=O)CN1CCN(CC(C)(C)COC(=O)C2=C(C)NC(C)=C(C(=O)OC)C2c2cccc([N+](=O)[O-])c2)CC1 (centres unmarked) [Example 27] | -83 | -60
19 | 6.25 (≈ 13 mM) | COC(=O)C1=C(C)NC(C)=C(C(=O)OCCN(C)Cc2ccccc2)C1c1cccc([N+](=O)[O-])c1 (centres unmarked) [Nicardipine, nicardipine, reference compound] | -29 | -22

Row | SMILES | solubility at 0.5 h (Water solubility test) [mg/mL] | Change in blood pressure, 4 hours after administration [1] [mmHg] | Change in blood pressure, 8 hours after administration [1] [mmHg]
20 | COC(=O)C1=C(C)NC(C)=C(C(=O)OCC(C)(C)CN2CCN(CCO[N+](=O)[O-])CC2)C1c1cccc([N+](=O)[O-])c1 (centres unmarked) [Example 24] | 500 (≈ 869 mM) | -91 | -69
